Experimental data reported in patent US11427556B2, “Urea derivatives as inhibitors of ASK1” (Hepagene Therapeutics (HK) Limited, priority 2017, dated 2022).
pEC50: −log10 of the molar value.

Target: T1, Recombinant human ASK1 kinase (Homo sapiens, UniProt Q99683)
T1 construct: purchased Invitrogen Inc
T1 sequence (Q99683 1-1374): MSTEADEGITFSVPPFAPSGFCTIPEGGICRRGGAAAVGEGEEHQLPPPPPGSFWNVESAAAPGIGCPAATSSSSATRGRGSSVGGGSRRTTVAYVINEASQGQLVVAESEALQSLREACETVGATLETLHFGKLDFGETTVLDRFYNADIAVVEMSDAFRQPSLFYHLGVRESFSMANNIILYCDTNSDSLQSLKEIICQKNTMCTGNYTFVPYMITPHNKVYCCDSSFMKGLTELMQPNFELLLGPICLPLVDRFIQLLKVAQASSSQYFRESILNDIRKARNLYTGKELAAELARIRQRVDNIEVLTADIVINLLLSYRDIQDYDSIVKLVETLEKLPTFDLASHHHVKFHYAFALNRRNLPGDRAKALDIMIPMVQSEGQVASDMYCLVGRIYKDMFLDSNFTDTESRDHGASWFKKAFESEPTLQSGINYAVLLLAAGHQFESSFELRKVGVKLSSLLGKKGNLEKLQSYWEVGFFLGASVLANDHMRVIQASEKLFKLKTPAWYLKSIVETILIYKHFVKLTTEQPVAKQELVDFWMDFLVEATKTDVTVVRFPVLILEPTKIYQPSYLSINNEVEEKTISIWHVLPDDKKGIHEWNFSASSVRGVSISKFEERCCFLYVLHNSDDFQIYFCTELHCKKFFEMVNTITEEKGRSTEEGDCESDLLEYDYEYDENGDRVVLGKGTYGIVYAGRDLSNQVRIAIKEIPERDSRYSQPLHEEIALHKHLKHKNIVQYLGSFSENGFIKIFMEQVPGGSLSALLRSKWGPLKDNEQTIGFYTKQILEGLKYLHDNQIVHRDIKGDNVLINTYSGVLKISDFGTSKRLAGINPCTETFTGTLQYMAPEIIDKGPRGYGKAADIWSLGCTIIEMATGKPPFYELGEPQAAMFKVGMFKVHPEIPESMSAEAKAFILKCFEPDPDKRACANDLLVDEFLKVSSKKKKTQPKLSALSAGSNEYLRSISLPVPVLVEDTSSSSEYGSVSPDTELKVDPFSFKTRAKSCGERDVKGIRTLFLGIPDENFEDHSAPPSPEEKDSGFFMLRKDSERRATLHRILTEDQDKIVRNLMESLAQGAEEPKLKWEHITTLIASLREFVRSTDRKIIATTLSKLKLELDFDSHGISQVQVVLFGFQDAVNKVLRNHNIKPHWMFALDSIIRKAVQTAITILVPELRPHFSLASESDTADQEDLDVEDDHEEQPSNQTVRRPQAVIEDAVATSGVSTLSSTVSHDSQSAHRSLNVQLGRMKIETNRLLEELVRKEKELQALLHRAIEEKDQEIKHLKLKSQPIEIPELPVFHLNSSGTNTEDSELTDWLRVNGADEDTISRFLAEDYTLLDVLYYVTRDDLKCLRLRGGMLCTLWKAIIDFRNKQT
Assay: ASK1 kinase HTRF assay (HTRF KinEASE-STK, phosphorylation of biotinylated peptide substrate)
Assay type: biochemical
Conditions: not given
Protocol: Reagents: Recombinant human ASK1 kinase was from Invitrogen Inc. HTRF KinEASETM-STK S3 kit was obtained from Cisbio (Bedford, Mass.). All other reagents were of the highest grade commercially available.
Assay: The assay measures the phosphorylation level of a biotinylatd peptide substrate by the ASK1 kinase using HTRF detection. ASK1 kinase assay is based on HTRF KinEASETM-STK manual from Cisbio. Test compound, 1 uM STK-substrate-biotin, 3 nM of ASK1 kinase are incubated with 1*Kinase buffer with 5 mM MgCl2 and 1 mM DTT.

| Structure (SMILES) | pEC50 |
| --- | --- |
| CC(C)n1cnnc1-c1cccc(NC(=O)Nc2cc(C(=O)N3CCCCC3)ccn2)n1 [Compound I-109] | > 7.30 |
| C[C@H](CO)n1cnnc1-c1cccc(NC(=O)Nc2cc(C(=O)N3CCCCC3)ccn2)n1 [Compound I-110] | > 7.30 |

Continued, values first:

| pEC50 | Structure (SMILES) |
| --- | --- |
| > 7.30 | CC(C)n1cnnc1-c1cccc(NC(=O)Nc2cc3ccccc3cn2)n1 [Compound I-057] |
| > 7.30 | CC(C)n1cnnc1-c1cccc(NC(=O)Nc2nccc3ccccc23)n1 [Compound I-066] |
| > 7.30 | CC(C)n1cnnc1-c1cccc(NC(=O)Nc2ccc3ccccc3n2)n1 [Compound I-067] |
| > 7.30 | C[C@H](CO)n1cnnc1-c1cccc(NC(=O)Nc2ccc3ccccc3n2)n1 [Compound I-069] |

Same assay, conditions: 3 nM ASK1 kinase, 1 uM STK-substrate-biotin, HTRF detection; read-out: EC50

| Structure (SMILES) | pEC50 |
| --- | --- |
| Cc1cnc(NC(=O)Nc2cccc(-c3nncn3C(C)C)n2)cn1 [Compound I-056] | > 7.30 |
| CC(C)[C@H](N)C(=O)OC[C@@H](C)n1cnnc1-c1cccc(NC(=O)Nc2cc3ccccc3cn2)n1 [Compound I-062] | > 7.30 |
| CC(C)n1cnnc1-c1cccc(NC(=O)Nc2cc3cc(N4CCNCC4)ccc3cn2)n1 [Compound I-065] | 6.30 to 7.30 |
| O=C(Nc1cccc(-c2nncn2C2CC2)n1)Nc1ccc2ccccc2n1 [Compound I-068] | > 7.30 |
| CC(C)n1cnnc1-c1cccc(NC(=O)Nc2ncccc2O)n1 [Compound I-072] | > 7.30 |
| CC(C)n1cnnc1-c1cccc(NC(=O)Nc2ccc(O)cn2)n1 [Compound I-074] | > 7.30 |
| CC(C)n1cnnc1-c1cccc(NC(=O)Nc2ncccc2-c2cccnc2)n1 [Compound I-082] | > 7.30 |
| CC(C)n1cnnc1-c1cccc(NC(=O)Nc2ncccc2-c2ccncc2)n1 [Compound I-083] | 6.30 to 7.30 |
| CC(C)n1cnnc1-c1cccc(NC(=O)Nc2cc(C3CCOCC3)ccn2)n1 [Compound I-091] | > 7.30 |
| CC(C)n1cnnc1-c1cccc(NC(=O)Nc2ccc(N3CCOCC3)cn2)n1 [Compound I-093] | > 7.30 |
| CC(C)n1cnnc1-c1cccc(NC(=O)Nc2cc(N3CCOCC3)ccn2)n1 [Compound I-094] | > 7.30 |
| CC(C)n1cnnc1-c1cccc(NC(=O)Nc2cc(N3CCNCC3)ccn2)n1 [Compound I-095, 1-(6-(4-Isopropyl-4H-1,2,4-triazol-3-yl)pyridin-2-yl)-3-(4-(piperazin-1-yl)pyridin-2-yl)urea] | > 7.30 |
| CC(C)n1cnnc1-c1cccc(NC(=O)Nc2ccc(N3CCNCC3)cn2)n1 [Compound I-097] | > 7.30 |
| CC(C)N1CCN(c2ccnc(NC(=O)Nc3cccc(-c4nncn4C(C)C)n3)c2)CC1 [Compound I-098] | > 7.30 |
| CCN1CCN(c2ccnc(NC(=O)Nc3cccc(-c4nncn4C(C)C)n3)c2)CC1 [Compound I-099] | > 7.30 |
| CC(C)n1cnnc1-c1cccc(NC(=O)Nc2cc(N3CCN(C4CC4)CC3)ccn2)n1 [Compound I-100] | > 7.30 |
| CC(C)n1cnnc1-c1cccc(NC(=O)Nc2cc(N3CCN(CCO)CC3)ccn2)n1 [Compound I-101] | > 7.30 |
| CC(C)n1cnnc1-c1cccc(NC(=O)Nc2cc(N3CCN(S(C)(=O)=O)CC3)ccn2)n1 [Compound I-102] | > 7.30 |
| C[C@H](CO)n1cnnc1-c1cccc(NC(=O)Nc2cc(N3CCN(S(C)(=O)=O)CC3)ccn2)n1 [Compound I-103] | > 7.30 |
| CC(=O)N1CCN(c2ccnc(NC(=O)Nc3cccc(-c4nncn4C(C)C)n3)c2)CC1 [Compound I-104] | > 7.30 |
| CC(C)n1cnnc1-c1cccc(NC(=O)Nc2cc(N3CCCCC3)ccn2)n1 [Compound I-105] | > 7.30 |
| CC(C)n1cnnc1-c1cccc(NC(=O)Nc2cc(N3CCC(N4CCOCC4)CC3)ccn2)n1 [Compound I-106] | > 7.30 |
| C[C@H](CO)n1cnnc1-c1cccc(NC(=O)Nc2cc(N3CCC(N4CCOCC4)CC3)ccn2)n1 [Compound I-107] | > 7.30 |
| CC(C)n1cnnc1-c1cccc(NC(=O)Nc2cc(C(N)=O)ccn2)n1 [Compound I-108] | > 7.30 |
| CC1(n2cnnc2-c2cccc(NC(=O)Nc3cc(C(=O)N4CCCCC4)ccn3)n2)CC1 [Compound I-115] | > 7.30 |
| CC(C)n1cnnc1-c1cccc(NC(=O)Nc2cc(C(=O)N3CCC(C)(C)CC3)ccn2)n1 [Compound I-117] | > 7.30 |
| CC(C)n1cnnc1-c1cccc(NC(=O)Nc2cc(C(=O)N3CCCC[C@@H]3C)ccn2)n1 [Compound I-118] | > 7.30 |
| C[C@H](CO)n1cnnc1-c1cccc(NC(=O)Nc2cc(C(=O)N3CCCC[C@@H]3C)ccn2)n1 [Compound I-119] | > 7.30 |
| CC(C)n1cnnc1-c1cccc(NC(=O)Nc2cc(C(=O)N3CCCC[C@H]3C)ccn2)n1 [Compound I-120] | > 7.30 |

Further lines, results first:

| pEC50 | Structure (SMILES) |
| --- | --- |
| > 7.30 | C[C@H](CO)n1cnnc1-c1cccc(NC(=O)Nc2cc3ccccc3cn2)n1 [Compound I-058] |
| > 7.30 | C[C@@H](CO)n1cnnc1-c1cccc(NC(=O)Nc2cc3ccccc3cn2)n1 [Compound I-059] |
| 6.30 to 7.30 | CC(=O)OC[C@@H](C)n1cnnc1-c1cccc(NC(=O)Nc2cc3ccccc3cn2)n1 [Compound I-061] |
| > 7.30 | CC(C)n1cnnc1-c1cccc(NC(=O)Nc2ncccc2OCc2ccccc2)n1 [Compound I-070] |
| > 7.30 | CC(C)n1cnnc1-c1cccc(NC(=O)Nc2ccc(OCc3ccccc3)cn2)n1 [Compound I-071] |
| 6.30 to 7.30 | CC(C)n1cnnc1-c1cccc(NC(=O)Nc2cc(O)ccn2)n1 [Compound I-073] |
| 6.30 to 7.30 | CC(C)n1cnnc1-c1cccc(NC(=O)Nc2ncccc2-c2ccccc2)n1 [Compound I-075] |
| > 7.30 | CC(C)n1cnnc1-c1cccc(NC(=O)Nc2ccc(-c3ccccc3)cn2)n1 [Compound I-076] |
| > 7.30 | CC(C)n1cnnc1-c1cccc(NC(=O)Nc2cc(-c3ccccc3)ccn2)n1 [Compound I-077] |
| > 7.30 | C[C@H](CO)n1cnnc1-c1cccc(NC(=O)Nc2cc(-c3ccccc3)ccn2)n1 [Compound I-078] |
| > 7.30 | C[C@@H](CO)n1cnnc1-c1cccc(NC(=O)Nc2cc(-c3ccccc3)ccn2)n1 [Compound I-079] |
| > 7.30 | CC(C)n1cnnc1-c1cccc(NC(=O)Nc2cc(-c3ccc(C4CC4)cc3)ccn2)n1 [Compound I-080] |
| > 7.30 | CC(C)n1cnnc1-c1cccc(NC(=O)Nc2cc(-c3ccc(C4CC4)nc3)ccn2)n1 [Compound I-081] |
| > 7.30 | CC(C)n1cnnc1-c1cccc(NC(=O)Nc2cc(-c3ccccn3)ccn2)n1 [Compound I-084] |
| > 7.30 | C[C@H](CO)n1cnnc1-c1cccc(NC(=O)Nc2cc(-c3ccccn3)ccn2)n1 [Compound I-085] |
| > 7.30 | CC(C)n1cnnc1-c1cccc(NC(=O)Nc2cc(-c3cccnc3)ccn2)n1 [Compound I-086] |
| > 7.30 | CC(C)n1cnnc1-c1cccc(NC(=O)Nc2cc(-c3ccncc3)ccn2)n1 [Compound I-087] |
| > 7.30 | CC(C)n1cnnc1-c1cccc(NC(=O)Nc2ccc(-c3ccccn3)cn2)n1 [Compound I-088] |
| > 7.30 | CC(C)n1cnnc1-c1cccc(NC(=O)Nc2ccc(-c3cccnc3)cn2)n1 [Compound I-089] |
| > 7.30 | CC(C)n1cnnc1-c1cccc(NC(=O)Nc2ccc(-c3ccncc3)cn2)n1 [Compound I-090] |
| > 7.30 | C[C@H](CO)n1cnnc1-c1cccc(NC(=O)Nc2cc(C3CCOCC3)ccn2)n1 [Compound I-092] |
| > 7.30 | C[C@H](CO)n1cnnc1-c1cccc(NC(=O)Nc2cc(N3CCNCC3)ccn2)n1 [Compound I-096] |
| > 7.30 | C[C@@H]1CCCCN1C(=O)c1ccnc(NC(=O)Nc2cccc(-c3nncn3[C@H](C)CO)n2)c1 [Compound I-121] |
| > 7.30 | C[C@H](CO)n1cnnc1-c1cccc(NC(=O)Nc2cc(C(=O)N3CCc4ccccc4C3)ccn2)n1 [Compound I-122] |
